{"source": "patent US20200206380A1", "about": "“METHOD OF PRODUCING AND PROVIDING AN ANTIMICROBIAL AGENT THAT EXERTS AN EXTENDED RESIDUAL EFFECT” (Dabney Patents, L.L.C., priority 2018, published 2020)", "origin": "cited, not measured here", "system": "bacteria", "details": "exposed for 20 seconds", "note": "Like-named read-outs stand apart in the source and are kept apart here.", "data": [{"smiles": "OO", "note": "[hydrogen peroxide]", "values": [{"measurement": "% of bacteria killed", "setting": "hydrogen peroxide used alone", "value": 30, "unit": "%"}, {"measurement": "% of bacteria killed", "setting": "in combination with radiation of 360 nm to 500 nm", "value": "≥ 96", "unit": "%"}]}]}
